Data: patent publication US12435061B2 (priority 2020, dated 2025)
pIC50: −log10 of the molar value. Where two headings read alike, the source gives them in different places.

Biological target: hTRPV3 (Homo sapiens (Human), UniProt Q8NET8)
Experiment: Whole-cell patch clamp, hTRPV3 Phase 1 / Phase 2 currents
Format: cell-based
Conditions: for pIC50: inward, whole-cell patch clamp
Procedure, shortened: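 Currents are activated by 20 μM 2-APB or by perfusate at 28 °C or warmer, in Ringer's solution, and quantified at ±80 mV.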

[1] = Phase 1 current, read-out: hTRPV3 Patch P1 Inwd
[2] = Phase 1 current, read-out: hTRPV3 (nM) (Phase 1)
[3] = Phase 2 current, read-out: hTRPV3 Patch P2 Inwd
[4] = Phase 2 current, read-out: hTRPV3 (nM) (Phase 2)

hTRPV3, sequence (Q8NET8 whole entry): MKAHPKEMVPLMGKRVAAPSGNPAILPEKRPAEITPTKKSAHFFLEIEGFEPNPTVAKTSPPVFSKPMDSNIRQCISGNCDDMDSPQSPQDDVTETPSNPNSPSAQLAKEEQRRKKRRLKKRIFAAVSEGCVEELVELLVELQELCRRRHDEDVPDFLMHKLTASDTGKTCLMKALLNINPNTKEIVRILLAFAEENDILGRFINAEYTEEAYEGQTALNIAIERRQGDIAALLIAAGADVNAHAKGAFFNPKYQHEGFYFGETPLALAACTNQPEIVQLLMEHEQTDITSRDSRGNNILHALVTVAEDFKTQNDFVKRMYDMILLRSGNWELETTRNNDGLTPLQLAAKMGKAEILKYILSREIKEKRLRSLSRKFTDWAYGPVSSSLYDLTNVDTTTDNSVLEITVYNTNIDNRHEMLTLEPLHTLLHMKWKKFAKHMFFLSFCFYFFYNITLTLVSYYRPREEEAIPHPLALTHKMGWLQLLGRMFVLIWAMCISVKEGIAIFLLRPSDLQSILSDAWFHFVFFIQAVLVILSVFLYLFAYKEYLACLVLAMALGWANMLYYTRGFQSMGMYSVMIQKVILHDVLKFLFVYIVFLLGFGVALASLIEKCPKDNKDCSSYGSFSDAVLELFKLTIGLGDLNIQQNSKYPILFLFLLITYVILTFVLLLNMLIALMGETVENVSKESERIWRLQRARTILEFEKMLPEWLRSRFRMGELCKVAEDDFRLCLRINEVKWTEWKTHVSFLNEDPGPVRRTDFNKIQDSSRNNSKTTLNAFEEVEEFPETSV

Row | SMILES | hTRPV3 (nM) (Phase 1) (Phase 1 current) | pIC50 [1] | IC50 [2] | pIC50 [3] | IC50 [4]
1 | CCc1ccccc1Oc1ccc(N2CC[C@H](Oc3ccc(C)cn3)C2)c(CO)n1 [Compound 1-214, (S)-(6-(2-ethylphenoxy)-3-(3-(5-methylpyridin-2-yloxy)pyrrolidin-1-yl)pyridin-2-yl)methanol] | Incomplete Block (Phase 1) |  |  |  | 
2 | Cc1ccc(O[C@H]2CCN(c3ccc(-c4ccccc4)nc3CCO)C2)nc1 [Compound 1-215] |  | < 6.00 | 1000 nM |  | 
3 | Cc1ccccc1-c1ccc(N2CC[C@H](Oc3ncccc3F)C2)c(CO)n1 [Compound 1-216, (S)-(3-(3-(3-fluoropyridin-2-yloxy)pyrrolidin-1-yl)-6-o-tolylpyridin-2-yl)methanol] |  | < 6.00 | 1160 nM |  | 
4 | N#Cc1ccccc1-c1ccc(N2CC[C@H](Oc3ncccc3F)C2)c(CO)n1 [Compound 1-217, (S)-2-(5-(3-(3-fluoropyridin-2-yloxy)pyrrolidin-1-yl)-6-(hydroxymethyl)pyridin-2-yl)benzonitrile] |  | < 6.00 | 3900 nM |  | 
5 | CCc1ccccc1-c1ccc(N2CC[C@H](Oc3ccc(C)cn3)C2)c(CCO)n1 [Compound 1-218, (S)-2-(6-(2-ethylphenyl)-3-(3-(5-methylpyridin-2-yloxy)pyrrolidin-1-yl)pyridin-2-yl)ethanol] |  | 6.00 to 7.00 | 614 nM |  | 
6 | Cc1cccc(Oc2ccc(N3CC[C@H](Oc4ncccc4Cl)C3)c(CO)c2)c1 [Compound 1-242, (S)-(2-(3-(3-chloropyridin-2-yloxy)pyrrolidin-1-yl)-5-(m-tolyloxy)phenyl)methanol] |  | 7.00 to 8.00 | 37 nM |  | 
7 | Cc1ccc(O[C@H]2CCN(c3ccc(-c4ccccn4)nc3CO)C2)nc1 [Compound 1-244, (S)-(5-(3-(5-methylpyridin-2-yloxy)pyrrolidin-1-yl)-2, 2′-bipyridin-6-yl)methanol] |  | < 6.00 | 4650 nM |  | 
8 | OCc1nc(-c2ncccn2)ccc1N1CC[C@H](Oc2ccc(C(F)(F)F)cn2)C1 [Compound 1-245, (S)-(6-(pyrimidin-2-yl)-3-(3-(5-(trifluoromethyl)pyridin-2-yloxy)pyrrolidin-1-yl)pyridin-2-yl)methanol] |  | < 6.00 | > 3200 nM |  | 
9 | N#Cc1ccc(-c2ccc(N3CC[C@H](Oc4ccc(C(F)(F)F)cn4)C3)c(CO)c2)cc1 [Compound 1-252, (S)-3′-(hydroxymethyl)-4′-(3-(5-(trifluoromethyl)pyridin-2-yloxy)pyrrolidin-1-yl)biphenyl-4-carbonitrile] |  | 6.00 to 7.00 | 886 nM |  | 
10 | NC(=O)c1ccc(-c2ccc(N3CC[C@H](Oc4ccc(C(F)(F)F)cn4)C3)c(CO)c2)cc1 [Compound 1-253, (S)-3′-(hydroxymethyl)-4′-(3-(5-(trifluoromethyl)pyridin-2-yloxy)pyrrolidin-1-yl)biphenyl-4-carboxamide] |  | < 6.00 | > 3200 nM |  | 
11 | OCc1cc(-c2ccccn2)ccc1N1CC[C@H](Oc2ccc(C(F)(F)F)cn2)C1 [Compound 1-254, (S)-(5-(pyridin-2-yl)-2-(3-(5-(trifluoromethyl)pyridin-2-yloxy)pyrrolidin-1-yl)phenyl) methanol] |  | < 6.00 | 1290 nM |  | 
12 | Cc1cccnc1-c1ccc(N2CC[C@H](Oc3ccc(C(F)(F)F)cn3)C2)c(CO)c1 [Compound 1-255, (S)-(5-(3-methylpyridin-2-yl)-2-(3-(5-(trifluoromethyl)pyridin-2-yloxy)pyrrolidin-1-yl)phenyl)methanol] |  | 6.00 to 7.00 | 806 nM |  | 
13 | Cc1ccc(O[C@H]2CCN(c3ccc(-c4ccccc4CN(C)C(=O)OC(C)(C)C)nc3CO)C2)nc1 [Compound 1-258, (S)-tert-butyl 2-(6-(hydroxymethyl)-5-(3-(5-methylpyridin-2-yloxy)pyrrolidin-1-yl)pyridin-2-yl)benzyl (methyl)carbamate] |  | 6.00 to 7.00 | 276 nM |  | 
14 | Cc1ccc(O[C@H]2CCN(c3ccc(-c4ncccc4C)cc3CO)C2)nc1 [Compound 1-259, (S)-(5-(3-methylpyridin-2-yl)-2-(3-(5-methylpyridin-2-yloxy)pyrrolidin-1-yl)phenyl) methanol] |  | < 6.00 | 3050 nM | < 6.00 | 2260 nM
15 | CCc1ccccc1C(O)c1ccc(N2CC[C@H](Oc3ncccc3Cl)C2)c(CO)c1 (stereo partly drawn) [Compound 1-260, (4-((S)-3-(3-chloropyridin-2-yloxy)pyrrolidin-1-yl)-3-(hydroxymethyl)phenyl)(2-ethylphenyl)methanol] |  | < 6.00 | 3150 nM |  | 
16 | OCc1ccc(-c2ccc(N3CC[C@H](Oc4ccc(C(F)(F)F)cn4)C3)c(CO)c2)cc1 [Compound 1-261, (S)-(4-(3-(5-(trifluoromethyl)pyridin-2-yloxy)pyrrolidin-1-yl)biphenyl-3,4′-diyl)dimethanol] |  | 6.00 to 7.00 | 604 nM |  | 
17 | O=C(c1ccc(N2CC[C@H](Oc3ncccc3Cl)C2)c(CO)c1)c1ccccc1Cl [Compound 1-263, (S)-(2-chlorophenyl)(4-(3-(3-chloropyridin-2-yloxy)pyrrolidin-1-yl)-3-(hydroxymethyl)phenyl)methanone] |  | 6.00 to 7.00 | 444 nM |  | 

Row | SMILES | hTRPV3 (nM) (Phase 1) (Phase 1 current) | pIC50 [1] | IC50 [2] | pIC50 [3] | IC50 [4]
18 | O=C(c1ccc(N2CC[C@H](Oc3ncccc3F)C2)c(CO)c1)c1ccccc1Cl [Compound 1-265, (S)-(2-chlorophenyl)(4-(3-(3-fluoropyridin-2-yloxy)pyrrolidin-1-yl)-3-(hydroxymethyl)phenyl)methanone] |  | < 6.00 | 1780 nM |  | 
19 | CCCc1ccccc1Oc1ccc(N2CC[C@H](Oc3ncccc3Cl)C2)c(CO)c1 [Compound 1-266, (S)-(2-(3-(3-chloropyridin-2-yloxy)pyrrolidin-1-yl)-5-(2-propylphenoxy)phenyl)methanol] |  | > 8.00 | 2.65 nM |  | 
20 | CC(C)(C)OC(=O)NCc1ccc(-c2ccc(N3CC[C@H](Oc4ccc(C(F)(F)F)cn4)C3)c(CO)c2)cc1 [Compound 1-269, (S)-tert-butyl (3′-(hydroxymethyl)-4′-(3-(5-(trifluoromethyl)pyridin-2-yloxy)pyrrolidin-1-yl)biphenyl-4-yl)methylcarbamate] |  | < 6.00 | > 3200 nM |  | 
21 | CC(C)c1ccccc1Oc1ccc(N2CC[C@H](Oc3ncccc3Cl)C2)c(CO)c1 [Compound 1-271, (S)-(2-(3-(3-chloropyridin-2-yloxy)pyrrolidin-1-yl)-5-(2-isopropylphenoxy)phenyl)methanol] |  | > 8.00 | 2.01 nM |  | 
22 | OCc1cc(C2CCOCC2)ccc1N1CC[C@H](Oc2ccc(C(F)(F)F)cn2)C1 [Compound 1-276, (S)-(5-(tetrahydro-2H-pyran-4-yl)-2-(3-(5-(trifluoromethyl)pyridin-2-yloxy)pyrrolidin-1-yl)phenyl)methanol] |  | < 6.00 | > 3200 nM |  | 
23 | OCc1cc(C(O)c2ccc(F)cc2)ccc1N1CC[C@H](Oc2ncccc2Cl)C1 (stereo partly drawn) [Compound 1-278, (4-((S)-3-(3-chloropyridin-2-yloxy)pyrrolidin-1-yl)-3-(hydroxymethyl)phenyl)(4-fluorophenyl)methanol] |  | 6.00 to 7.00 | 254 nM |  | 
24 | OCc1cc(C2=CCOCC2)ccc1N1CC[C@H](Oc2ccc(C(F)(F)F)cn2)C1 [Compound 1-280, (S)-(5-(3,6-dihydro-2H-pyran-4-yl)-2-(3-(5-(trifluoromethyl)pyridin-2-yloxy)pyrrolidin-1-yl)phenyl)methanol] |  | < 6.00 | ~3600 nM |  | 
25 | Cc1cccc(C(O)c2ccc(N3CC[C@H](Oc4ncccc4Cl)C3)c(CO)c2)c1 (stereo partly drawn) [Compound 1-281, (4-((S)-3-(3-chloropyridin-2-yloxy)pyrrolidin-1-yl)-3-(hydroxymethyl)phenyl)(m-tolyl)methanol] |  | < 6.00 | 1100 nM |  | 
26 | OCc1cc(Oc2ccc(Cl)cc2)ccc1N1CC[C@H](Oc2ccccn2)C1 [Compound 1-283] |  | 6.00 to 7.00 | 283 nM |  | 
27 | OCc1cc(Br)ccc1N1C[C@@H](O)[C@H](Oc2ccc(C(F)(F)F)cn2)C1 [Compound 1-284] |  | < 6.00 | 1630 nM |  | 
28 | OCc1cc(Oc2ccc(Cl)cc2)ccc1N1C[C@@H](O)[C@H](Oc2ccc(C(F)(F)F)cn2)C1 [Compound 1-285] |  | < 6.00 | > 3200 nM | < 6.00 | ~4900 nM
29 | COCc1ccc(C(=O)c2ccc(N3CC[C@H](Oc4ncccc4Cl)C3)c(CO)c2)cc1 [Compound 1-286] |  | 6.00 to 7.00 | 607 nM |  | 
30 | Cc1ccc(C(O)c2ccc(N3CC[C@H](Oc4ncccc4Cl)C3)c(CO)c2)cc1 (stereo partly drawn) [Compound 1-287, (4-((S)-3-(3-chloropyridin-2-yloxy)pyrrolidin-1-yl)-3-(hydroxymethyl)phenyl)(p-tolyl)methanol] |  | 6.00 to 7.00 | 674 nM |  | 
31 | O=C(c1ccc(Cl)cc1)c1ccc(N2CC[C@H](Oc3ncccc3Cl)C2)c(CO)c1 [Compound 1-288, (S)-(4-chlorophenyl)(4-(3-(3-chloropyridin-2-yloxy)pyrrolidin-1-yl)-3-(hydroxymethyl)phenyl)methanone] |  | 7.00 to 8.00 |  |  | 
32 | COCc1ccc(C(O)c2ccc(N3CC[C@H](Oc4ncccc4Cl)C3)c(CO)c2)cc1 (stereo partly drawn) [Compound 1-290, (4-((S)-3-(3-chloropyridin-2-yloxy)pyrrolidin-1-yl)-3-(hydroxymethyl)phenyl)(4-(methoxymethyl)phenyl)methanol] |  | < 6.00 | > 3200 nM | < 6.00 | > 3200 nM
33 | O=C(c1ccc(Cl)cc1)c1ccc(N2CC[C@H](Oc3ncccc3Cl)C2)c(CCO)c1 [Compound 1-291, (S)-(4-chlorophenyl)(4-(3-(3-chloropyridin-2-yloxy)pyrrolidin-1-yl)-3-(2-hydroxyethyl)phenyl)methanone] |  | 6.00 to 7.00 | ~188 nM | 6.00 to 7.00 | ~217 nM
34 | OCCc1cc(C(O)c2ccc(Cl)cc2)ccc1N1CC[C@H](Oc2ncccc2Cl)C1 (stereo partly drawn) [Compound 1-292, 2-(5-((4-chlorophenyl)(hydroxy)methyl)-2-((S)-3-(3-chloropyridin-2-yloxy)pyrrolidin-1-yl)phenyl)ethanol] |  | < 6.00 | ~4900 nM | < 6.00 | ~5100 nM
